According to ChEMBL document CHEMBL1201862, “PubChem BioAssay data set” (2004):
Active and inactive are the calls of the source.

What was measured:
[1] = biological target: T1, Alkaline phosphatase, tissue-nonspecific isozyme (Homo sapiens, UniProt P05186)
T1 sequence (P05186 whole entry): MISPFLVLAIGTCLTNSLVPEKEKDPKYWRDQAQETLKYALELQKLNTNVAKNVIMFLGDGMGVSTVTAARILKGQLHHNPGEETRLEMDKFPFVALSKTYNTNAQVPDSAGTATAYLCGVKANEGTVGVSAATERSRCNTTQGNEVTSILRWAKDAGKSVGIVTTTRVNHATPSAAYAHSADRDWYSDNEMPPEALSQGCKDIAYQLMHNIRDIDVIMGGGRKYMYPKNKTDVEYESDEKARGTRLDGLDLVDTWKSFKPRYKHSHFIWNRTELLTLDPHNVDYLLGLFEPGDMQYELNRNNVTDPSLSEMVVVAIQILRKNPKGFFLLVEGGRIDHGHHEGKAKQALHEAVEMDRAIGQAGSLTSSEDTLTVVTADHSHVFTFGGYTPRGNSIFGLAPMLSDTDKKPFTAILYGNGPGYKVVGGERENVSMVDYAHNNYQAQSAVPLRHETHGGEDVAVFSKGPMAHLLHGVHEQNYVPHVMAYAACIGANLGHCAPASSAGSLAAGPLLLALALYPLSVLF

[2] = HEK-293T viability loss after treatment – luminescence, T-cell screen hits, cytotoxicity control for TCR NF-kB inhibitor project, dose response (AID 489026); format: functional, cell-based;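 also: cells exposed to compound about 14 hours before the viability readout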
[3] = biological target: T2, Eukaryotic translation initiation factor 2-alpha kinase 3 (Homo sapiens, UniProt Q9NZJ5); assay: Dose response cell-based high-throughput screening assay to measure PERK inhibition. [Related pubchem assays: 1416 ]; format: functional
T2 sequence (Q9NZJ5 whole entry): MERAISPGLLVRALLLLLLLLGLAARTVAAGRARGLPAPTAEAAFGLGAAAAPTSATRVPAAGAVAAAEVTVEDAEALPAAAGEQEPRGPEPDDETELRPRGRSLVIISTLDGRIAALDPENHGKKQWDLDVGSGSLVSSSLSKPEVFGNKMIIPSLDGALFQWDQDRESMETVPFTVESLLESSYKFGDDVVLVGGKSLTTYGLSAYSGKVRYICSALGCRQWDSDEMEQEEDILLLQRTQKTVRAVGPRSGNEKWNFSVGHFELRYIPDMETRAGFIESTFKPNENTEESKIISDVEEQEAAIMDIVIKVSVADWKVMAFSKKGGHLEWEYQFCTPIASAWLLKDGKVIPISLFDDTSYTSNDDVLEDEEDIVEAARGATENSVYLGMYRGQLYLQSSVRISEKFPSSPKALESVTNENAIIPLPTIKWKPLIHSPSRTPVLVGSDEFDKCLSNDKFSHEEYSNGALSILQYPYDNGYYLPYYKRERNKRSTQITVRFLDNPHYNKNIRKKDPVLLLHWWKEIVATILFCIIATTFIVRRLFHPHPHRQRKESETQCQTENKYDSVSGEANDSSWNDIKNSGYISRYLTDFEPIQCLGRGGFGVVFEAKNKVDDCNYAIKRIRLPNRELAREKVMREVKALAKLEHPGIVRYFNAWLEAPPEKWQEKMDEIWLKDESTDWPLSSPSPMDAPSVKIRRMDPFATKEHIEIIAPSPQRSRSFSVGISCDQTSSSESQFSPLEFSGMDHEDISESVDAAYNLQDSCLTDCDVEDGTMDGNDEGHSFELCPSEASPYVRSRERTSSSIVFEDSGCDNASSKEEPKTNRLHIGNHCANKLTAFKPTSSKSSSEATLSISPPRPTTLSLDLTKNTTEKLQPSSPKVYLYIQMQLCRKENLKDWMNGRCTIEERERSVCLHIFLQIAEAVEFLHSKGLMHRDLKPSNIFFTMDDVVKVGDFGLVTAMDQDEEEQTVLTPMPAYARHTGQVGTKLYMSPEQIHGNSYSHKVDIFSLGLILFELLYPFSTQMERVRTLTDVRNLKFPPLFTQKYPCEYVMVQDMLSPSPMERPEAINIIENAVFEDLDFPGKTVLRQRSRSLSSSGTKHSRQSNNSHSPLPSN

[4] = biological target: T2, Eukaryotic translation initiation factor 2-alpha kinase 3; assay: Counterscreen assay for PERK inhibitors: Dose response cell-based high throughput screening assay to measure inhibition of PERK at 6 hours. [Related pubchem assays: 1522, 1416 ]; format: functional
[5] = A cytotoxicity screen of small molecule inhibitors of the PhoP region in Salmonella typhi identified in the primary screen. [Related pubchem assays: 1850, 1864, 1985 ]; format: functional
INS1 = assay: INS-1E survival protection against cytokine death – cell-based, luminescence, retest, dose response (AID 449756); format: functional; conditions: Rattus norvegicus;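 also: cell death triggered by IL-1 beta plus TNF-alpha plus IFN-gamma mixture; protective hits raise ATP signal compared with cytokine alone wells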
[6] = biological target: T3, Luciferin 4-monooxygenase (Photinus pyralis, UniProt P08659); assay: Counter Screen for Luciferase-based Assay Positives. [Related pubchem assays: 620, 618, 411 ]
T3 sequence (P08659 whole entry): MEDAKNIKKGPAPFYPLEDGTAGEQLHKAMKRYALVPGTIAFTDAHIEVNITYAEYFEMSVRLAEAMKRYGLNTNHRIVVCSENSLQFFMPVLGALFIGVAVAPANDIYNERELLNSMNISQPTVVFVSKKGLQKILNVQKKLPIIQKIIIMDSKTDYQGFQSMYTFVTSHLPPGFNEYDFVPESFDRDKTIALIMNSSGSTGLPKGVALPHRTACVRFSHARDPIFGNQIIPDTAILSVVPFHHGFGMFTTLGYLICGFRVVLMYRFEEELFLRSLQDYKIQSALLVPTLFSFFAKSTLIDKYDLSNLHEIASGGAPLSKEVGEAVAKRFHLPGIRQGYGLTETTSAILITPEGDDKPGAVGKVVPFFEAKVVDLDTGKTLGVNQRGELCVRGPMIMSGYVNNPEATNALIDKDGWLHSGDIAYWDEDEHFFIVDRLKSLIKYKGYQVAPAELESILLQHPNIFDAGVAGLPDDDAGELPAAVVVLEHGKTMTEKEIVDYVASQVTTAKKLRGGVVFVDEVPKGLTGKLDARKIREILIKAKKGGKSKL

HEK293 [7] = assay: PMA/Ionomycin induced NF-kB luciferase assay in 293- NF-kB-Luc stable cells. [Related pubchem assays: 1299, 1270, 1295, 1375, 1287, 1281, 1293, 1291, 1289, 1280, 465, 1364, 1282, 1372, 1365, 1370, 1367, 1366, 1269, 1373, 1292, 1290, 1302, 1371, 1283, 1271, 1294, 1374, 1368, 1369 ]; format: functional, cell-based; conditions: Homo sapiens
[8] = biological target: T3, Luciferin 4-monooxygenase; assay: In vitro luciferase assay using purified luciferase. [Related pubchem assays: 1299, 1270, 1295, 1375, 1287, 1281, 1293, 1291, 1289, 1280, 465, 1364, 1282, 1372, 1365, 1370, 1367, 1366, 1266, 1373, 1292, 1290, 1302, 1371, 1283, 1271, 1294, 1374, 1368, 1369 ]
[9] = biological target: Glyceraldehyde-3-phosphate dehydrogenase (Homo sapiens, UniProt P04406)
Glyceraldehyde-3-phosphate dehydrogenase, sequence (P04406 whole entry): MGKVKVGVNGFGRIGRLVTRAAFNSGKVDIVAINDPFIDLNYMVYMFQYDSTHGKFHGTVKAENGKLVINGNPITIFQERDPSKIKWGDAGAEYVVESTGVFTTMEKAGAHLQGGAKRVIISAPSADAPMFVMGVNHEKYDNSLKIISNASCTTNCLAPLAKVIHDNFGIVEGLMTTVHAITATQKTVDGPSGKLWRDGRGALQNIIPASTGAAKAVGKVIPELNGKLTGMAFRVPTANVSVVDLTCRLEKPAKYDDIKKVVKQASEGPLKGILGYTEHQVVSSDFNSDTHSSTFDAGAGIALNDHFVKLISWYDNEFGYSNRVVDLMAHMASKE

HEK293 [10] = assay: PMA/Ionomycin-induced IL-8 production in HEK293- NF-kB-Luc stable cells. [Related pubchem assays: 1299, 1295, 1375, 1287, 1281, 1293, 1291, 1289, 1280, 465, 1364, 1282, 1372, 1365, 1367, 1366, 1266, 1269, 1373, 1292, 1290, 1302, 1371, 1283, 1271, 1294, 1374, 1368, 1369 ]; format: functional, cell-based; conditions: Homo sapiens
[11] = Luminescence-based counterscreen assay for KLF5 inhibitors: dose response cell-based high throughput screening assay to identify cytotoxic compounds using the IEC-6 intestinal epithelial cell line. [Related pubchem assays: 1700 (Primary screen.), 1834 (Confirmation screen.), 1858 (Summary AID.), 1905 (Counterscreen.)]; format: functional
HT-1080 = assay: HT1080 cell viability loss – fluorescence readout (AID 620); format: functional, cell-based; conditions: Homo sapiens
HEK293 [12] = assay: Cytotoxicity assay in HEK293 cells. [Related pubchem assays (depositor defined):AID1266, AID1269, AID1270, AID1271, AID1280, AID1281, AID1282, AID1283, AID1287, AID1289, AID1290, AID1291, AID1292, AID1293, AID1294, AID1295, AID1299, AID1302, AID1364, AID1365, AID1366, AID1367, AID1369, AID1370, AID1371, AID1372, AID1373, AID1374, AID1375, AID1384 …; format: functional, cell-based; conditions: Homo sapiens
HEK293 [13] = assay: TNF Induced NF-kB Luciferase in 293-NF-kB-Luc Stable Cells. [Related pubchem assays: 1266, 1299, 1269, 1373, 1292, 1290, 1302, 1371, 1283, 1270, 1295, 1271, 1375, 1294, 1374, 1281, 1293, 1291, 1289, 1280, 465, 1368, 1364, 1282, 1372, 1365, 1369, 1370, 1367, 1366 ]; format: functional, cell-based; conditions: Homo sapiens
[14] = blockers of HIV-1 envelope-mediated cell-cell fusion – cherry-pick, dose response (AID 652057); format: functional, cell-based
[15] = blockers of HIV-1 ZM109 envelope-driven cell-cell fusion – HeLa effector, CEM target cells, luciferase, cherry-pick, dose response (AID 652058); format: functional, cell-based;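 also: luciferase signal from HIV-1 Env mediated cell-cell fusion of effector and target cells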
[16] = off-target signal loss in HeLa-CEM21 co-culture – HeLa F-luc CTL cells, cherry-picked, counter-screen for HIV-1 Env fusion inhibitor project, dose response (AID 652040); format: functional, cell-based;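 also: potency for signal decrease marking cytotoxic or nonspecific inhibition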
[17] = HIV-1 AD8 envelope cell-cell fusion blockers – cherry-pick, dose response (AID 652062); format: functional, cell-based;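 also: luciferase signal from cell-cell fusion driven by HIV-1 clade B AD8 Env; potency is for inhibitors of fusion seen as a drop in luminescence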
Protein Tat = Protein Tat (Human immunodeficiency virus type 1 group M subtype B (isolate HXB2)(HIV-1), UniProt P04608); format: functional;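 also: tat binding to TAR RNA read out by fluorescence polarization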
Protein Tat, sequence (P04608 whole entry): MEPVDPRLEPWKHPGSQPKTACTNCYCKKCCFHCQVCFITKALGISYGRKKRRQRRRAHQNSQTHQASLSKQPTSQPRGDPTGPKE

[18] = mRNA 3' processing disruption, beta-gal signal increase – luminescence, S. cerevisiae SKY197-pL101, dose response (AID 2525); format: functional, cell-based
[19] = yeast viability loss, SKY197-pL101 strain – Alamar Blue fluorescence, MIC, counter-screen for polyadenylation inhibitor project, dose response (AID 2693); format: functional; conditions: Saccharomyces cerevisiae
Large T antigen = Large T antigen (Simian virus 40, UniProt P03070); format: functional, Betapolyomavirus macacae;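 also: Confirmatory-stage PubChem screen for compounds that inhibit SV40 T antigen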
Large T antigen, sequence (P03070 whole entry): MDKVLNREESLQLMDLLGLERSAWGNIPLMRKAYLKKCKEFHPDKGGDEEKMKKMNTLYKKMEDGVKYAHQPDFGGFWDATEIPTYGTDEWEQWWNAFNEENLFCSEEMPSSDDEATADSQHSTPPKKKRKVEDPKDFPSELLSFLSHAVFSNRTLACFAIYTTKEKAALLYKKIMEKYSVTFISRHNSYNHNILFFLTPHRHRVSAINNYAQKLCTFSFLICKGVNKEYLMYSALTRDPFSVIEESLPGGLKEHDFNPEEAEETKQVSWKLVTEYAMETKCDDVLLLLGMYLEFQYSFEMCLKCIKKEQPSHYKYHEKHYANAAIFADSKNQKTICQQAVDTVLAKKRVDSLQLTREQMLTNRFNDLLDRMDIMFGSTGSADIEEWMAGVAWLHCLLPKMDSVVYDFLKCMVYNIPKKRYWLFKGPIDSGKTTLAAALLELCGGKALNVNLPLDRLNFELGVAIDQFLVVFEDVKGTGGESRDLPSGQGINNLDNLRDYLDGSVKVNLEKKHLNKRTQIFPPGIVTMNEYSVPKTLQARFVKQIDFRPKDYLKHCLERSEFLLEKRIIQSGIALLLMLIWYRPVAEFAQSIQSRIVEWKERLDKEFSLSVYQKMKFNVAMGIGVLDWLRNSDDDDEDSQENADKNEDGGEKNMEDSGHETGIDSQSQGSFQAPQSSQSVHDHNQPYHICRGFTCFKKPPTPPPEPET

[20] = Luminescence Cell-Based Dose Confirmation HTS to Identify Inhibitors of Polyadenylation.; format: functional

With `CCOC(=O)c1ccc2nc(Nc3nc4ccc(F)cc4s3)sc2c1` the EC50 [1] was 33.6 µM (active) and the IC50 [2] was > 80 µM (inactive).

With `COCCNC(=O)c1cnn2c(O)cc(C3CCN(C(=O)OC(C)(C)C)CC3)nc12` the EC50 [3] was > 55.7 µM (not active) and the EC50 [4] was > 55.7 µM (not active).

For `O=C(c1ccc2c(c1)nc(S)n1c3ccccc3nc21)N1CCN(c2cccc(Cl)c2)CC1`, the EC50 [5] was > 50 µM (active) and the AC50 (INS1) was 8.62 µM (active).

In the case of `Cc1cc(C(=O)CN2C(=O)c3ccccc3S2(=O)=O)c(C)n1CC1CCCO1` (centres undefined), the EC50 [6] is reported as 1.17 µM (active), the EC50 (HEK293 [7]) is reported as 0.456 µM (active) and the EC50 [8] is reported as > 8 µM (not active). The IC50 [9] was > 100 µM (not active), the EC50 (HEK293 [10]) was > 8 µM (not active) and the IC50 [11] was > 39.8 µM (not active). For the same compound, the EC50 (HT-1080) was > 50 µM (not active), the EC50 (HEK293 [12]) was 8.14 µM (inactive) and the EC50 (HEK293 [13]) was 6.87 µM (not active). For the same compound, the AC50 [14] was 0.287 µM (active), the AC50 [15] was 1.35 µM (active) and the AC50 [16] was 0.407 µM (active). For the same compound, the AC50 [17] was 0.445 µM (active) and the IC50 (Protein Tat) was > 100 µM (active).

In the case of `COc1cc(/C=C2\SC(=S)N(NC(=O)c3cccnc3)C2=O)ccc1O`, the EC50 [18] is reported as 103 µM (active), the MIC [19] is reported as > 37 µM (inconclusive) and the IC50 (Large T antigen) is reported as 8.49 µM (active). The EC50 [20] was 9.9 µM (active).
